Measurements reported in ChEMBL document CHEMBL4411344, “Synthesis and biological evaluation of new long-chain squaramides as anti-chagasic agents in the BALB/c mouse model” (Bioorg Med Chem, 2019).
Active and inactive are the calls of the source. The rule behind the calls is not given here.

Key:
Trypanosoma cruzi [1] = test: Trypanocidal activity against Trypanosoma cruzi MHOM/Pe/2011/Arequipa DTU 5 epimastigotes after 72 hrs by resazurin dye based assay; type: functional, organism-based; conditions: MHOM/Pe/2011/Arequipa DTU 5, 72 h
Trypanosoma cruzi [2] = test: Trypanocidal activity against Trypanosoma cruzi IRHOD/CO/2008/SN3 DTU 1 trypomastigotes derived from infected Balb/c mouse after 72 hrs by resazurin dye based assay; type: functional, organism-based; conditions: IRHOD/CO/2008/SN3 DTU 1, 72 h
Trypanosoma cruzi [3] = test: Trypanocidal activity against Trypanosoma cruzi TINF/CH/1956/Tulahuen DTU 6 amastigotes infected in African green monkey Vero cells after 72 hrs by Giemsa-staining based microscopic assay; type: functional, organism-based; conditions: TINF/CH/1956/Tulahuen DTU 6, Vero
[4] = Selectivity index, ratio of IC50 for African green monkey Vero cells to IC50 for Trypanosoma cruzi IRHOD/CO/2008/SN3 DTU 1 epimastigotes; type: toxicity; conditions: read-out: Ratio IC50
[5] = Selectivity index, ratio of IC50 for African green monkey Vero cells to IC50 for Trypanosoma cruzi IRHOD/CO/2008/SN3 DTU 1 amastigotes infected in African green monkey Vero cells; type: toxicity; conditions: read-out: Ratio IC50
[6] = Selectivity index, ratio of IC50 for African green monkey Vero cells to IC50 for Trypanosoma cruzi TINF/CH/1956/Tulahuen DTU 6 epimastigotes; type: toxicity; conditions: read-out: Ratio IC50
[7] = Selectivity index, ratio of IC50 for African green monkey Vero cells to IC50 for Trypanosoma cruzi TINF/CH/1956/Tulahuen DTU 6 trypomastigotes derived from infected Balb/c mouse; type: toxicity; conditions: read-out: Ratio IC50
Trypanosoma cruzi [8] = test: (§1) Antitrypanosomal activity against Trypanosoma cruzi MHOM/Pe/2011/Arequipa DTU 5 trypomastigotes infected in Balb/c mouse assessed as reduction in parasitaemia level at 20 mg/kg, po once daily for 5 consecutive days starting from day 10 post infection measured every 2 to 3 days up to day 50 post infection starting from day 7 post infection by Neubauer chamber method; type: functional, organism-based
Trypanosoma cruzi [9] = test: as §1, with “on” for “every 2 to 3 days up to”, “40” for “50 post infection starting from day 7”; type: functional, organism-based
Trypanosoma cruzi [10] = test: Antitrypanosomal activity against Trypanosoma cruzi MHOM/Pe/2011/Arequipa DTU 5 trypomastigotes infected in Balb/c mouse assessed as reduction in parasitaemia reactivation at 20 mg/kg, po pretreated once daily for 5 consecutive days starting from day 75 post infection followed by cyclophosphamide-induced immunosuppression on day 100 post infection measured within 1 week post immunosuppression by Neubauer chamber method; type: functional; parameters: scale not given: the % may be the effect or the level left
Trypanosoma cruzi [11] = test: (§2) Antitrypanosomal activity against Trypanosoma cruzi MHOM/Pe/2011/Arequipa DTU 5 trypomastigotes infected in Balb/c mouse assessed as parasite-free brain at 20 mg/kg, po pretreated once daily for 5 consecutive days starting from day 10 post infection followed by cyclophosphamide-induced immunosuppression on day 100 post infection measured on day 127 post infection by PCR method; type: functional
Trypanosoma cruzi [12] = test: as §2, with “muscle” for “brain”; type: functional
Trypanosoma cruzi [13] = test: as §2, with “as parasite-free oesophagus at 20” for “as parasite-free brain at 20”, “from day 75 post infection” for “from day 10 post infection”; type: functional
Trypanosoma cruzi [14] = test: as §2, with “as parasite-free lungs at 20” for “as parasite-free brain at 20”, “from day 75 post infection” for “from day 10 post infection”; type: functional
Trypanosoma cruzi [15] = test: Antitrypanosomal activity against Trypanosoma cruzi MHOM/Pe/2011/Arequipa DTU 5 trypomastigotes infected in Balb/c mouse assessed as reduction in Ig-G level in serum at 20 mg/kg, po once daily for 5 consecutive days starting from day 10 post infection measured on day 100 post infection by ELISA; type: functional, organism-based
Trypanosoma cruzi [16] = test: Antitrypanosomal activity against Trypanosoma cruzi MHOM/Pe/2011/Arequipa DTU 5 trypomastigotes infected in Balb/c mouse assessed as reduction in splenomegaly at 20 mg/kg, po once daily for 5 consecutive days starting from day 10 post infection measured on day 127 post infection relative to control; type: functional; parameters: scale not given: the % may be the effect or the level left
Trypanosoma cruzi [17] = test: Antitrypanosomal activity against Trypanosoma cruzi MHOM/Pe/2011/Arequipa DTU 5 epimastigotes assessed as effect on parasite glycolytic pathway by measuring increase in succinate excretion at IC25 after 72 hrs by 1H NMR method; type: functional, organism-based
[18] = target: Superoxide dismutase [Cu-Zn] (Homo sapiens, UniProt P00441); test: Inhibition of human erythrocyte CuZn-SOD by UV-Visible spectrophotometric method
Superoxide dismutase [Cu-Zn], sequence (P00441 whole entry): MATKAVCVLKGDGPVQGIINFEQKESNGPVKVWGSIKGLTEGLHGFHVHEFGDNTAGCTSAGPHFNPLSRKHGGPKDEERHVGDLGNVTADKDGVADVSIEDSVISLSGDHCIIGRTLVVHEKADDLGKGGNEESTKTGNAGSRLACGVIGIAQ

[19] = Toxicity in Balb/c mouse assessed as death at 20 mg/kg, po once daily for 5 consecutive days starting from day 10 post infection; type: organism-based; conditions: in vivo
[20] = Toxicity in Balb/c mouse assessed as reduction in body mass at 20 mg/kg, po once daily for 5 consecutive days starting from day 10 post infection relative to control; type: organism-based; parameters: scale not given: the % may be the effect or the level left; conditions: in vivo
[21] = Toxicity in Balb/c mouse assessed as reduction in body mass at 20 mg/kg, po once daily for 5 consecutive days starting from day 75 post infection relative to control; type: organism-based; parameters: scale not given: the % may be the effect or the level left; conditions: in vivo
[22] = Nephrotoxicity in Balb/c mouse infected with Trypanosoma cruzi MHOM/Pe/2011/Arequipa DTU 5 trypomastigotes assessed as decrease in serum urea level at 20 mg/kg, po once daily for 5 consecutive days starting from day 10 post infection measured on day 127 post infection relative to control; type: toxicity, organism-based; conditions: in vivo
[23] = Nephrotoxicity in Balb/c mouse infected with Trypanosoma cruzi MHOM/Pe/2011/Arequipa DTU 5 trypomastigotes assessed as decrease in serum uric acid level at 20 mg/kg, po once daily for 5 consecutive days starting from day 10 post infection measured on day 16 post infection relative to control; type: toxicity, organism-based; parameters: scale not given: the % may be the effect or the level left; conditions: in vivo
[24] = (§3) Hepatotoxicity in Balb/c mouse infected with Trypanosoma cruzi MHOM/Pe/2011/Arequipa DTU 5 trypomastigotes assessed as increase in ratio of serum AST to GOT level at 20 mg/kg, po once daily for 5 consecutive days starting from day 10 post infection measured on day 16 post infection relative to control; type: toxicity, organism-based; conditions: in vivo
[25] = as §3, with “75” for “10”, “81” for “16”; type: toxicity, organism-based; conditions: in vivo
[26] = Hepatotoxicity in Balb/c mouse infected with Trypanosoma cruzi MHOM/Pe/2011/Arequipa DTU 5 trypomastigotes assessed as change in total bilirubin level at 20 mg/kg, po once daily for 5 consecutive days starting from day 10 post infection measured on day 127 post infection by biochemical analysis (reference value: 0.21 mg/dl); type: toxicity, organism-based; conditions: in vivo
[27] = Hepatotoxicity in Balb/c mouse infected with Trypanosoma cruzi MHOM/Pe/2011/Arequipa DTU 5 trypomastigotes assessed as increase in total bilirubin level at 20 mg/kg, po once daily for 5 consecutive days starting from day 75 post infection measured on day 81 post infection relative to control; type: toxicity, organism-based; conditions: in vivo
[28] = Hepatotoxicity in Balb/c mouse infected with Trypanosoma cruzi MHOM/Pe/2011/Arequipa DTU 5 trypomastigotes assessed as increase in total bilirubin level at 20 mg/kg, po once daily for 5 consecutive days starting from day 75 post infection measured on day 127 post infection relative to control; type: toxicity, organism-based; conditions: in vivo
[29] = Hepatotoxicity in Balb/c mouse infected with Trypanosoma cruzi MHOM/Pe/2011/Arequipa DTU 5 trypomastigotes assessed as increase in alkaline phosphatase level at 20 mg/kg, po once daily for 5 consecutive days starting from day 75 post infection measured on day 81 post infection relative to control; type: toxicity, organism-based; conditions: in vivo
[30] = Hepatotoxicity in Balb/c mouse infected with Trypanosoma cruzi MHOM/Pe/2011/Arequipa DTU 5 trypomastigotes assessed as increase in alkaline phosphatase level at 20 mg/kg, po once daily for 5 consecutive days starting from day 10 post infection measured on day 16 post infection relative to control; type: toxicity, organism-based; conditions: in vivo

SMILES | IC50 (Trypanosoma cruzi [1]) [µM] | IC50 (Trypanosoma cruzi [2]) [µM] | IC50 (Trypanosoma cruzi [3]) [µM] | selectivity ratio [4] | selectivity ratio [5] | Activity (Trypanosoma cruzi [10]) | Activity (Trypanosoma cruzi [11]) | Activity (Trypanosoma cruzi [12]) | Activity (Trypanosoma cruzi [13]) | Activity (Trypanosoma cruzi [14]) | Activity (Trypanosoma cruzi [15]) | Activity (Trypanosoma cruzi [16]) | Activity [19] | Activity [20] [%] | Activity [21] [%] | Activity [22] [mg/dL] | Activity [23] [%] | Activity [24] [U/L] | Activity [25] [U/L] | Activity [27] [%] | other results
CCCCCCCCCCCCCCCCNc1c(N(C)CCCN(C)C)c(=O)c1=O | 7.3 | 5.4 | 6.4 | 42.5 | 35.9 | 21% | 67% | 67% | 78% | 78% | Active | 66% | Non-Toxic | > 10 | > 10 | 10 to 20 | > 40 | 10 to 20 | 10 to 20 | 20 | selectivity ratio [6]: 71.1; selectivity ratio [7]: 144; Activity (Trypanosoma cruzi [8]): Active; Activity (Trypanosoma cruzi [9]): Active; Activity (Trypanosoma cruzi [17]): Active; IC50 [18]: > 100 µM; Activity [26]: 0.21 mg/dL; Activity [28]: 10%; Activity [29]: 10 to 20 U/L
CCCCCCNc1c(N(C)CCCN(C)C)c(=O)c1=O | 20.3 | 15.8 | 38.3 | 63 | 18 | inactive | inactive | inactive | inactive | inactive | inactive | Active | Non-Toxic | > 10 | > 10 | 10 to 20 | > 40 | 30 to 40 | 10 to 20 | 10 | selectivity ratio [6]: 61.3; selectivity ratio [7]: 52.2; Activity (Trypanosoma cruzi [8]): inactive; Activity (Trypanosoma cruzi [17]): Active; IC50 [18]: > 100 µM; Activity [26]: 0.21 mg/dL; Activity [30]: 10 to 20 U/L
O=C(Cn1ccnc1[N+](=O)[O-])NCc1ccccc1 [BENZNIDAZOLE] | – | – | – | – | – | 51% | 33% | 33% | 55% | 55% | Active | Active | Non-Toxic | > 10 | > 10 | 20 to 30 | > 40 | > 40 | 20 to 30 | 30 | Activity (Trypanosoma cruzi [9]): Active; Activity [28]: 20%; Activity [30]: 20 to 30 U/L; Activity [29]: > 40 U/L
